The numbers were not newly measured in patent US20240325295A1, “AQUEOUS BUMETANIDE-CONTAINING LIQUID” (DriPel B.V., priority 2021, published 2024), which cites them from elsewhere.

The structures appear in SMILES notation. Values after ≈ are worked out from the molar mass of the structure shown.

The conditions of data set [1]: at 25° C.
For data set [2] the following is noted: at 4° C.

For the compound `CCCCNc1cc(C(=O)O)cc(S(N)(=O)=O)c1Oc1ccccc1` [Bumetanide], the water solubility in data set [1] is 0.026 mg/mL (≈ 0.0713 mM). Also, in data set [2] (glycofurol), the solubility in glycofurol is given as 167 mg/mL (≈ 458 mM). Also, in data set [2] (polyethylene glycol 200), the “solubility in polyethylene glycol 200” value was 143 mg/mL (≈ 392 mM).
